This passage reports EC50 results from patent publication US20230131192A1, “1H-PYRAZOLO[4,3-d]PYRIMIDINE COMPOUNDS AS TOLL-LIKE RECEPTOR 7 (TLR7) AGONISTS” (BRISTOL-MYERS SQUIBB COMPANY, priority 2020, published 2023).

The target of experiment [1] is T1, human TLR7 (Homo sapiens, UniProt Q9NYK1).
T1 construct: host or cells: HEK-Blue TLR7 cells (engineered human embryonic kidney cells)
T1 sequence (Q9NYK1 27-1049): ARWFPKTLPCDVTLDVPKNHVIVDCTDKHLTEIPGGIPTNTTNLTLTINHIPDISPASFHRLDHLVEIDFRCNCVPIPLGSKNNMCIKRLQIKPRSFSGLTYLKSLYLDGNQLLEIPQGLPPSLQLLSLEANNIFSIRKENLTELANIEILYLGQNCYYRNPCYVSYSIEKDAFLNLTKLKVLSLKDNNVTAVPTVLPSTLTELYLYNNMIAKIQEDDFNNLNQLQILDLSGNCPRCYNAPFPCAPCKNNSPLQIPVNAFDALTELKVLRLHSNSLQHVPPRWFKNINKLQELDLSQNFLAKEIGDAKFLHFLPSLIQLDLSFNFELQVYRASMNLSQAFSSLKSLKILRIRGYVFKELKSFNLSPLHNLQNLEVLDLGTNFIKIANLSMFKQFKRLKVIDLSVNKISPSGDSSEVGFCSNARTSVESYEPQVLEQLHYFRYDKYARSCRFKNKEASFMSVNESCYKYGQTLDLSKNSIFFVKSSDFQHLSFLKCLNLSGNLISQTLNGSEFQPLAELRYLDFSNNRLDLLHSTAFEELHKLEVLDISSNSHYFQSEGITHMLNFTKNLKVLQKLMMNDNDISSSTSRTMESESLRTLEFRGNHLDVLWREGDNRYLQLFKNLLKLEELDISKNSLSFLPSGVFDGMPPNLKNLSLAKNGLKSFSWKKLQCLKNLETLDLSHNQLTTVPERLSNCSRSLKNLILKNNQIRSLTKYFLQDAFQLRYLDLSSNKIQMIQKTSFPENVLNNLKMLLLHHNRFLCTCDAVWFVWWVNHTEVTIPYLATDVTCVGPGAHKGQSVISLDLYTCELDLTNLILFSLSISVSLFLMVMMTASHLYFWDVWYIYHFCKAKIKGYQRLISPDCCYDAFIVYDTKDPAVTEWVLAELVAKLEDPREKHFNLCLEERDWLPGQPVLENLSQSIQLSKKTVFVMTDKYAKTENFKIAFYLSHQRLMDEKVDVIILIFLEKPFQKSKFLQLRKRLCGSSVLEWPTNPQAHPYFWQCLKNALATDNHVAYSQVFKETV
Description: Human TLR7 agonist (reporter) activity assay, HEK-Blue TLR7 cells, SEAP reporter. The class given is cell-based. The conditions noted are these: 18 h treatment, average where assay was performed multiple times, read-out: hTLR7 Agonism EC50. The protocol:
This procedure describes a method for assaying human TLR7 (hTLR7) agonist activity of the compounds disclosed in this specification.
HEK-Blue™ TLR7 cells were added to each well of a 384-well tissue-culture plate (15,000 cells per well) and incubated 16-18 h at 37° C., 5% CO2. Compounds (100 nl) were dispensed into wells containing the HEK-Blue™ TLR cells and the treated cells were incubated at 37° C., 5% CO2. After 18 h treatment ten microliters of freshly-prepared Quanti-Blue™ reagent (Invivogen) was added to each well, incubated for 30 min (37° C., 5% CO2) and SEAP levels measured using an Envision plate reader (OD=620 nm). The half maximal effective concentration values (EC50; compound concentration which induced a response halfway between the assay baseline and maximum) were calculated.

Experiment [2] has as its system CD69. Description: Induction of CD69 in human whole blood. The format is cell-based. Conditions: 17 hrs, CD69 surface staining, 100% set to 1 uM of resiquimod, average where assay was performed multiple times, read-out: hWB CD69 EC50. The protocol: The induction of Type I interferon (IFN) MX-1 genes and the B-cell activation marker CD69 are downstream events that occur upon activation of the TLR7 pathway. The following is a human whole blood assay that measures their induction in response to a TLR7 agonist.
Heparinized human whole blood was harvested from human subjects and treated with test TLR7 agonist compounds at 1 mM. The blood was diluted with RPMI 1640 media and Echo was used to predot 10 nL per well giving a final concentration of 1 uM (10 nL in 10 uL of blood). After mixing on a shaker for 30 sec, the plates were covered and placed in a 37° C. chamber for o/n=17 hrs. Fixing/lysis buffer was prepared (5×→1× in H2O, warm at 37° C.; Cat # BD 558049) and kept the perm buffer (on ice) for later use.
For surface markers staining (CD69): prepared surface Abs: 0.045 ul hCD14-FITC (ThermoFisher Cat # MHCD1401)+0.6 ul hCD19-ef450 (ThermoFisher Cat #48-0198-42)+1.5 ul hCD69-PE (cat # BD555531)+0.855 ul FACS buffer. Added 3 ul/well, spin1000 rpm for 1 min and mixed on shaker for 30 sec, put on ice for 30 mins. Stop stimulation after 30 minutes with 70 uL of prewarmed 1× fix/lysis buffer and use Feliex mate to resuspend (15 times, change tips for each plate) and incubate at 37 C for 10 minutes.
Centrifuge at 2000 rpm for 5 minutes aspirate with HCS plate washer, mix on shaker for 30 sec and then wash with 70 uL in dPBS and pelleted 2×s (2000 rpm for 5 min) and 50 ul wash in FACS buffer pelleted 1×s(2000 rpm for 5 min). Mix on shaker for 30 sec. For Intracellular markers staining (MX-1): Add 50 ul of BD Perm buffer III and mix on shaker for 30 sec. Incubate on ice for 30 minutes (in the dark). Wash with 50 uL of FACS buffer 2× (spin @2300 rpm×5 min after perm) followed by mixing on shaker for 30 sec. Resuspended in 20 ul of FACS buffer containing MX1 antibody ( )(4812)-Alexa 647: Novus Biologicals #NBP2-43704AF647) 20 ul FACS bf+0.8 ul hlgG+0.04 ul MX-1. Spin 1000 rpm for 1 min, mix on shaker for 30se and the samples were incubated at RT in the dark for 45 minutes followed by washing 2×FACS buffer (spin @2300 rpm×5 min after perm). Resuspend 20 ul (35 uL total per well) of FACS buffer and cover with foil and place in 4° C. to read the following day. Plates were read on iQuePlus. The results were loaded into toolset and […] curves are generated in curve master. The y-axis 100% is set to 1 uM of resiquimod.

Each structure is given as a SMILES string.

On to `COc1cc(CN2CCC(S(C)(=O)=O)CC2)ccc1Cn1ncc2nc(N)nc(NCc3cc(C)on3)c21` [Compound 111], for which the EC50 (as a rule, the concentration at which the effect is half-maximal) in experiment [1] came out at 176 nM; in experiment [2], 58.8 nM.
For `COc1cc(CNC2CCOCC2)ccc1Cn1ncc2nc(N)nc(N[C@H](CO)CC3CC3)c21` [Compound 108, (2S)-2-({5-amino-1-[(2-methoxy-4-{[(oxan-4-yl)amino]methyl}phenyl)methyl]-1H-pyrazolo[4,3-d]pyrimidin-7-yl}amino)-3-cyclopropylpropan-1-ol], the results for the half-maximal effective concentration (EC50) in experiment [1] and in experiment [2] were 342 nM and 119 nM, respectively.
With `COc1cc(CN2CCN(CCO)CC2)ccc1Cn1ncc2nc(N)nc(NCc3noc(C)n3)c21` [Compound 117, 2-[4-({4-[(5-amino-7-{[(5-methyl-1,2,4-oxadiazol-3-yl)methyl]amino}-1H-pyrazolo[4,3-d]pyrimidin-1-yl)methyl]-3-methoxyphenyl}methyl)piperazin-1-yl]ethan-1-ol], the EC50 in experiment [1] came to 18.6 nM; in experiment [2], 1.4 nM.
`COc1cc(CN2CCN(S(C)(=O)=O)CC2)ccc1Cn1ncc2nc(N)nc(NCc3cc(C)on3)c21` [Compound 110, 1-({4-[(4-methanesulfonylpiperazin-1-yl)methyl]-2-methoxyphenyl}methyl)-N7-[(5-methyl-1,2-oxazol-3-yl)methyl]-1H-pyrazolo[4,3-d]pyrimidine-5,7-diamine]: the half-maximal effective concentration (EC50) worked out at 485 nM in experiment [1] and 438 nM in experiment [2].
In the case of `COc1cc(CNC2CCOCC2)cnc1Cn1ncc2nc(N)nc(NCc3noc(C)n3)c21` [Compound 130, 1-[(3-methoxy-5-{[(oxan-4-yl)amino]methyl}pyridin-2-yl)methyl]-N7-[(5-methyl-1,2,4-oxadiazol-3-yl)methyl]-1H-pyrazolo[4,3-d]pyrimidine-5,7-diamine], the EC50 in experiment [1] came out at 1350 nM; in experiment [2], 85 nM.
As to `COc1cc(CN2CCC(S(C)(=O)=O)CC2)ccc1Cn1ncc2nc(N)nc(NCc3noc(C)n3)c21` [Compound 119, 1-({4-[(4-methanesulfonylpiperidin-1-yl)methyl]-2-methoxyphenyl}methyl)-N7-[(5-methyl-1,2,4-oxadiazol-3-yl)methyl]-1H-pyrazolo[4,3-d]pyrimidine-5,7-diamine], the concentration for a half-maximal effect (EC50) in experiment [1] turned out to be 298 nM; in experiment [2] it was 34.7 nM.
In the case of `COc1cc(CNC2CCOCC2)ccc1Cn1ncc2nc(N)nc(NCc3cc(C)on3)c21` [Compound 103, 1-[(2-methoxy-4-{[(oxan-4-yl)amino]methyl}phenyl)methyl]-N7-[(5-methyl-1,2-oxazol-3-yl)methyl]-1H-pyrazolo[4,3-d]pyrimidine-5,7-diamine], the EC50 in experiment [1] was 57.6 nM; in experiment [2], 5.4 nM.
Regarding `COc1cc(CN2CCN(C)CC2)ccc1Cn1ncc2nc(N)nc(NCc3cc(C)on3)c21` [Compound 104, 1-({2-methoxy-4-[(4-methylpiperazin-1-yl)methyl]phenyl}methyl)-N7-[(5-methyl-1,2-oxazol-3-yl)methyl]-1H-pyrazolo[4,3-d]pyrimidine-5,7-diamine], the EC50 in experiment [1] stood at 12.3 nM; in experiment [2], 3.6 nM.
The corresponding values for `COc1cc(CN2CCN(S(C)(=O)=O)CC2)ccc1Cn1ncc2nc(N)nc(NCc3noc(C)n3)c21` [Compound 120, 1-({4-[(4-methanesulfonylpiperazin-1-yl)methyl]-2-methoxyphenyl}methyl)-N7-[(5-methyl-1,2,4-oxadiazol-3-yl)methyl]-1H-pyrazolo[4,3-d]pyrimidine-5,7-diamine] are 345 nM and 299 nM.
On to `COc1cc(CNC2CCOCC2)ccc1Cn1ncc2nc(N)nc(NCc3noc(C)n3)c21` [Compound 114, 1-[(2-methoxy-4-{[(oxan-4-yl)amino]methyl}phenyl)methyl]-N7-[(5-methyl-1,2,4-oxadiazol-3-yl)methyl]-1H-pyrazolo[4,3-d]pyrimidine-5,7-diamine], for which the figures for the concentration for a half-maximal effect (EC50) in experiment [1] and in experiment [2] were 79.1 nM and 19.6 nM, respectively.
In the case of `COc1cc(CNC2CCOCC2)ccc1Cn1ncc2nc(N)nc(NCc3noc(C4CC4)n3)c21` [Compound 127, N7-[(5-cyclopropyl-1,2,4-oxadiazol-3-yl)methyl]-1-[(2-methoxy-4-{[(oxan-4-yl)amino]methyl}phenyl)methyl]-1H-pyrazolo[4,3-d]pyrimidine-5,7-diamine], the EC50 in experiment [1] was found to be 72.4 nM; in experiment [2], 25.5 nM.
For `COc1cc(CNC2CCC2)ccc1Cn1ncc2nc(N)nc(NCc3noc(C)n3)c21` [Compound 107, 1-({4-[(cyclobutylamino)methyl]-2-methoxyphenyl}methyl)-N7-[(5-methyl-1,2,4-oxadiazol-3-yl)methyl]-1H-pyrazolo[4,3-d]pyrimidine-5,7-diamine], in that order: 46.6 nM and 5.9 nM.
For `COc1cc(CO)ccc1Cn1ncc2nc(N)nc(NCc3cc(C)on3)c21` [Compound 101, {4-[(5-amino-7-{[(5-methyl-1,2-oxazol-3-yl)methyl]amino}-1H-pyrazolo[4,3-d]pyrimidin-1-yl)methyl]-3-methoxyphenyl}methanol], in that order: 354 nM and 472 nM.
Consider `COc1cc(CNC2CCC2)ccc1Cn1ncc2nc(N)nc(NCc3cc(C)on3)c21` [Compound 102, 1-({4-[(cyclobutylamino)methyl]-2-methoxyphenyl}methyl)-N7-[(5-methyl-1,2-oxazol-3-yl)methyl]-1H-pyrazolo[4,3-d]pyrimidine-5,7-diamine], for which the values for the EC50 in experiment [1] and in experiment [2] were 74.6 nM and 25.8 nM, respectively.
For `COc1cc(CNC2CCOCC2)ccc1Cn1ncc2nc(N)nc(NCC[C@@H](O)C3CC3)c21` [Compound 109b, (1R)-3-({5-amino-1-[(2-methoxy-4-{[(oxan-4-yl)amino]methyl}phenyl)methyl]-1H-pyrazolo[4,3-d]pyrimidin-7-yl}amino)-1-cyclopropylpropan-1-ol], in that order: 1330 nM and 163 nM.
